Data reported in patent US12636285B2 (ViiV Healthcare Company, priority 2019, dated 2026).
Where “and” joins values, the source holds several entries; their conditions need not be identical. Equal entries are not always repeated. Where two headings read alike, the source gives them in different places.

Columns and labels:
[1] = Phase 3 clinical trials of oral rilpivirine (rash); type: in vivo, human
From the text: According to another aspect of the main embodiment, precautions are taken prior to and during treatment with the Combination. Severe skin and hypersensitivity reactions have been reported during postmarketing experience with oral rilpivirine-containing regimens including cases of Drug Reaction with Eosinophilia and Systemic Symptoms (DRESS). While some skin reactions were accompanied by constitutional symptoms such as fever, other skin reactions were associated with organ dysfunctions, including elevations in hepatic serum biochemistries.

[2] = Lactating rats, exposure of pups through milk; type: in vivo, rat; details: administered to lactating rats
From the text: The Centers for Disease Control and Prevention recommends that HIV-1-infected mothers in the United States not breastfeed their infants to avoid risking postnatal transmission of HIV-1 infection. It is not known if the components of the Combination are present in human breast milk, affect human milk production, or have effects on the breastfed infant. […] Animal Data: Cabotegravir: […] Rilpivirine: […]

[3] = QT crossover trial of oral rilpivirine in healthy adults; type: in vivo, human
From the text: The maximum mean time-matched (95% upper confidence bound) differences in QTcF interval from placebo after baseline correction was 2.0 (5.0) msec (i.e., below the threshold of clinical concern).

[4] = Pharmacokinetic properties of the components of the Combination (Table 6); design: species or system human; details: in vivo
[5] = Binding to human plasma proteins; type: in vitro ADME; details: read-out: % Bound to human plasma proteins (converted)
[6] = Mass balance studies, single-dose oral [14C] drug; type: in vivo, human; details: single-dose oral [14C] drug
[7] = Multiple-dose pharmacokinetics after monthly IM injections, population PK post-hoc estimates FLAIR and ATLAS; type: in vivo, human; details: 600-mg monthly IM injection
[8] = Pharmacokinetics in specific populations (renal, hepatic impairment, UGT1A1 genotype); type: in vivo, human; details: for exposure higher than matched controls: n=8
From the text: No dosage adjustment is necessary for patients with mild to severe renal impairment (not on dialysis).
No dosage adjustment is necessary for patients with mild to moderate hepatic impairment (Child-Pugh Score A or B).
No dose adjustment is required in subjects with UGT1A1 polymorphisms.

[9] = tested on: human cellular DNA polymerases α, β, and γ; experiment: Inhibition of human cellular DNA polymerases; type: biochemical
HIV-1111B = experiment: Antiviral activity in an acutely infected T-cell line; type: cell-based, HIV-1; details: Human immunodeficiency virus 1, read-out: median EC50
[10] = tested on: HIV-1 group M (subtypes A, B, C, D, F, G, and H) primary isolates; experiment: Antiviral activity against group M primary isolates; type: cell-based; details: Human immunodeficiency virus 1, read-out: EC50 values
group O primary isolates = experiment: Antiviral activity against group O primary isolates; type: cell-based, HIV-1; details: Human immunodeficiency virus 1, read-out: EC50 values
HIV-1 = experiment: Antiviral activity in combination with other antivirals, cell culture; type: cell-based
[11] = tested on: HIV-1 with NNRTI substitutions; experiment: Cross-resistance of rilpivirine, NNRTI substitutions; type: cell-based
[12] = in vivo
From the text: The observed hepatocellular findings in mice may be rodent specific.

[13] = Genotoxicity: bacterial reverse mutation assay, mouse lymphoma assay, in vivo rodent micronucleus assay
[14] = Fertility studies in rats; type: in vivo, rat; details: up to 400 mg/kg/day, dose with maternal toxicity
[15] = cited from earlier work

With `Cc1cc(/C=C/C#N)cc(C)c1Nc1ccnc(Nc2ccc(C#N)cc2)n1` [Rilpivirine, 4-[[4-[[4-[(E)-2-cyanoethenyl]-2,6-dimethylphenyl]amino]-2-pyrimidinyl]amino]benzonitrile] the “Grade 4 rash” value [1] was “no Grade 4 rash was reported”, the “treatment-related rashes with at least Grade 2 severity, subjects” value [1] was 3% and the presence in milk [2] was “present in milk”. For the same compound, the “maximum mean time-matched (95% upper confidence bound) difference in QTcF interval from placebo after baseline correction” value ([3]; oral 25 mg once daily, steady state) was 2.0 (5.0) msec, the “maximum mean time-matched (95% upper confidence bound) difference in QTcF interval from placebo after baseline correction” value ([3]; oral 75 mg once daily) was 10.7 (15.3) msec and the “maximum mean time-matched (95% upper confidence bound) difference in QTcF interval from placebo after baseline correction” value ([3]; oral 300 mg once daily) was 23.3 (28.4) msec. For the same compound, the Tmax ([4]; human, im, intramuscular injection, read-out: Tmax, median (converted)) was 3 to 4 days, the half-life ([4]; human, im, intramuscular injection, read-out: t1/2 (absorption rate limited), mean) was 91 to 196 days and the “Major route of elimination” value [4] was “Metabolism”. For the same compound, the Metabolic pathways [4] was “CYP3A”, the fraction unbound [5] was 0.003 and the “% of dose excreted as total 14C in feces” value [6] was 85%. The “% of dose excreted as total 14C in urine” value [6] was 6%, the “% of dose excreted as unchanged drug in feces” value [6] was “(26) %” and the “% of dose excreted as unchanged drug in urine” value [6] was “(<1) %”. For the same compound, the “Ctrough, geometric mean” value [7] was 82.2 ng/mL, the AUC ([7]; human, in vivo, read-out: AUCtau, geometric mean) was 65600 ng·h/mL and the Cmax ([7]; human, in vivo, read-out: Cmax, geometric mean) was 116 ng/mL. The “exposure higher than matched controls” value ([8]; mild hepatic impairment (Child-Pugh Score A)) was 47%, the “exposure higher than matched controls” value ([8]; moderate hepatic impairment (Child-Pugh Score B)) was 5% and the “effect of mild renal impairment on exposure” value ([8]; oral rilpivirine, population pharmacokinetic analyses) was “no clinically relevant effect”. The “inhibition of human cellular DNA polymerases α, β, and γ” value [9] was “does not inhibit”, the EC50 (HIV-1111B) was 0.73 nM and 0.00027 µg/mL and the EC50 [10] was 0.07 nM to 1.01 nM and 3e-05 µg/mL to 0.00037 µg/mL. For the same compound, the EC50 (group O primary isolates) was 2.88 nM to 8.45 nM and 0.00106 µg/mL to 0.0031 µg/mL, the “antiviral activity combined with listed NNRTIs, NRTIs, protease inhibitors, enfuvirtide, maraviroc, or raltegravir” value (HIV-1) was “not antagonistic” and the “susceptibility with K103N substitution by itself” value [11] was “did not show reduced susceptibility”. For the same compound, the carcinogenicity ([12]; mouse) was “positive for hepatocellular neoplasms”, the carcinogenicity ([12]; rat) was “not carcinogenic” and the genotoxicity [13] was “not genotoxic”. For the same compound, the “effects on mating or fertility” value [14] was “no effects on mating or fertility”, the “prevalence of birth defects in live births” value ([15]; first trimester exposure to rilpivirine-containing regimens) was 0.9% and the “prevalence of birth defects in live births” value ([15]; second/third trimester exposure to rilpivirine-containing regimens) was 1.24%.
